The values that follow come from patent US10563272B2, “Compositions comprising Metarhizium fungi and use thereof as a pesticide” (Cotton Research and Development Corporation, priority 2015, dated 2020).

Assay [1] concerns Bemisia tabaci b-type adults and nymphs. As to the kind of experiment: Rate trial on Bollgard II cotton, Norwood 2011-2012 (Example 11): silverleaf whiteflies. The format is in vivo. The note with it: DAT 511 250 mL, 500 mL, 1 L/ha; Pyriproxyfen 500 mL/ha; P<0.001. How it is done:
This trial was conducted on an irrigated Bollgard II® cotton crop on a commercial cotton farm at Norwood near Moree, NSW, in 2011-2012.
(§1) The following treatments were evaluated against Bemisia tabaci b-type adults and nymphs: • 1. 250 mL/ha DAT 511 spore in oil (1×10^7 spores/ml); • 2. 500 mL/ha DAT 511 spore in oil (1×10^7 spores/ml); • 3. 1 L/ha DAT 511 spore in oil (1×10^7 spores/ml); • 4. 500 mL/ha Pyriproxyfen (conventional insecticide); and • 5. Unsprayed (control).
(§2) The treatment plots were arranged in a randomized complete block design with three replicates per treatment. Each replicated plot measured 40 m wide (40 rows) and 90 m long.
Foliar applications of each treatment were made on 28 Feb. and 20 Mar. 2012. […] On each sampling date, 20 plants from each replicate were randomly selected and B. tabaci adults on one leaf from the 5th node below the terminal of each plant were counted. […]
(§3) In the case of nymphs, one leaf from the 5th node below the terminal of each of the 20 plants was cut, removed and carefully placed individually in a plastic bag. The plastic bags containing the leaves were taken to the laboratory and the B. tabaci nymphs were counted under a binocular microscope. Data of both adults and nymphs were expressed as numbers per leaf per treatment.

Assay [2] has the same test system. Nature of the assay: Rate trial on Bollgard cotton, Cooinda St George 2011-2012 (Example 13): silverleaf whiteflies. The format is in vivo. The note with it: P<0.001; FIG. 50. The procedure:
This trial was conducted on an irrigated Bollgard cotton crop on a commercial cotton farm at Cooinda, St George, Queensland, in 2011-2012.
as §1, §2
Foliar applications of each treatment were made on 12 Mar. and 26 Mar. 2012. […] On each sampling date, 20 plants from each replicate were randomly selected and B. tabaci adults on one leaf from the 5th node below the terminal of each plant were counted. […]
as §3

As for `CC(COc1ccc(Oc2ccccc2)cc1)Oc1ccccn1` (centres unmarked) [Pyriproxyfen], the “SLW adults and nymphs versus the unsprayed” value in assay [1] is reported as “fewer”. The “silverleaf whitefly adults and nymphs versus unsprayed plots” value in assay [2] is recorded as “Significantly fewer”.
